The text below walks through data of patent US20260347319A1, “YAP/TAZ-TEAD ONCOPROTEINS INHIBITORS” (BridGene Biosciences, Inc., priority 2022, published 2026).

The experiment concerns TEAD1. The experiment in a line: MCF-7 TEAD1-luciferase reporter assay (MCF7-TEAD-Luc). Particulars: MCF7 cells, overnight; for IC50: Homo sapiens; for TEAD1-Luc MCF7: Max Inhibition: % of DMSO-treated control. Format: cell-based. Here is the method:
The ability of compounds to inhibit TEAD-dependent transcription was assessed in the MCF7-TEAD-Luc reporter assay (BPS #60618). Cells were seeded at 10,000 cells in 200 μL per well into white wall, clear bottom 96-well plates (Corning #3610) and incubated at 37° C. for 24 hours, then treated with serial diluted compounds overnight, and luciferase signal was measured using the ONE-Step Luciferase Assay System (BPS #60690) using an EnSight Multimode plate reader (PerkinElmer, model #MLDHH34000000, integration time 100 ms) with Kaleido 3.0. software. For data analysis, dose-dependent curves were plotted as “% inhibition” (% of DMSO-treated control wells), and were fitted by four-parametric model in GraphPad Prism to obtain IC50 values.

As to `C=CC(=O)N1CC[C@](O)(/C=C/c2ccc(C(F)(F)F)cc2)C1` (single isomer, unassigned) [Example 27, (S*,E)-1-(3-hydroxy-3-(4-(trifluoromethyl)styryl)pyrrolidin-1-yl)prop-2-en-1-one], the IC50 fell in the range of 100 to 500 nM and the “TEAD1-Luc MCF7: Max Inhibition” value is “A (A ≥ 75%)”.

With `C=CC(=O)N1CC[C@@](O)(/C=C/c2ccc(C(F)(F)F)cc2)C1` (single isomer, unassigned) [Example 28, (R*,E)-1-(3-hydroxy-3-(4-(trifluoromethyl)styryl)pyrrolidin-1-yl)prop-2-en-1-one], the IC50 was in the range of 10 to 100 nM and the “TEAD1-Luc MCF7: Max Inhibition” value is reported as “B (75% > B ≥ 50%)”.

In the case of `C=CC(=O)N1CC[C@@](C)(/C=C/c2ccc(C(F)(F)F)cc2)C1` (single isomer, unassigned) [Example 29, 1-[(3S*)-3-methyl-3-{2-[4-(trifluoromethyl)phenyl]ethenyl}pyrrolidin-1-yl]prop-2-en-1-one], the IC50 is 10 to 100 nM and the “TEAD1-Luc MCF7: Max Inhibition” value is recorded as “A (A ≥ 75%)”.

Take `C=CC(=O)N1CC[C@](C)(/C=C/c2ccc(C(F)(F)F)cc2)C1` (single isomer, unassigned) [Example 30, 1-[(3R*)-3-methyl-3-{2-[4-(trifluoromethyl)phenyl]ethenyl}pyrrolidin-1-yl]prop-2-en-1-one]: the IC50 was in the range of 10 to 100 nM and the “TEAD1-Luc MCF7: Max Inhibition” value was “A (A ≥ 75%)”.

For `C=CC(=O)N1CC(/C=C/c2ccc(C(F)(F)F)cc2)C(C)(C)C1` (single isomer, unassigned) [Example 33], the IC50 lay in the range of 100 to 500 nM and the “TEAD1-Luc MCF7: Max Inhibition” value is “A (A ≥ 75%)”.

For `C=CC(=O)N1CC[C@@H](/C=C\c2cccc(C(F)(F)F)c2)C1` (single isomer, unassigned) [Example 41, (S*,Z)-1-(3-(3-(trifluoromethyl)styryl)pyrrolidin-1-yl)prop-2-en-1-one], the IC50 was 10 to 100 nM and the “TEAD1-Luc MCF7: Max Inhibition” value was “A (A ≥ 75%)”.

With `C=CC(=O)N1CC[C@H](/C=C\c2cccc(C(F)(F)F)c2)C1` (single isomer, unassigned) [Example 42, (R*,Z)-1-(3-(3-(trifluoromethyl)styryl)pyrrolidin-1-yl)prop-2-en-1-one], the half-maximal inhibitory concentration (IC50) lay within 100 to 500 nM and the “TEAD1-Luc MCF7: Max Inhibition” value was “A (A ≥ 75%)”.

Turning to `C=CC(=O)N1CC[C@H](/C=C/c2cccc(C(F)(F)F)c2)C1` (single isomer, unassigned) [Example 43, (R*,E)-1-(3-(3-(trifluoromethyl)styryl)pyrrolidin-1-yl)prop-2-en-1-one], the IC50 was 100 to 500 nM and the “TEAD1-Luc MCF7: Max Inhibition” value is “B (75% > B ≥ 50%)”.

For `C=CC(=O)N1CC[C@@H](/C=C/c2cccc(C(F)(F)F)c2)C1` (single isomer, unassigned) [Example 44, (S*,E)-1-(3-(3-(trifluoromethyl)styryl)pyrrolidin-1-yl)prop-2-en-1-one], the IC50 is 10 to 100 nM and the “TEAD1-Luc MCF7: Max Inhibition” value is “A (A ≥ 75%)”.

For `C=CC(=O)N1CC[C@H](C#Cc2cccc(C(F)(F)F)c2)C1` (single isomer, unassigned) [Example 56, (R*)-1-(3-((3-(trifluoromethyl)phenyl)ethynyl)pyrrolidin-1-yl)prop-2-en-1-one], the IC50 is 10 to 100 nM and the “TEAD1-Luc MCF7: Max Inhibition” value was “A (A ≥ 75%)”.

`C=CC(=O)N1CC[C@@H](C#Cc2cccc(C(F)(F)F)c2)C1` (single isomer, unassigned) [Example 57, (S*)-1-(3-((3-(trifluoromethyl)phenyl)ethynyl)pyrrolidin-1-yl)prop-2-en-1-one]: the IC50 was 10 to 100 nM and the “TEAD1-Luc MCF7: Max Inhibition” value is “A (A ≥ 75%)”.

For `C=CC(=O)N1CC[C@@](C#Cc2ccc(C(F)(F)F)cc2)(OC)C1` (single isomer, unassigned) [Example 58, (S*)-1-(3-methoxy-3-((4-(trifluoromethyl)phenyl)ethynyl)pyrrolidin-1-yl)prop-2-en-1-one], the IC50 is at most 10 nM and the “TEAD1-Luc MCF7: Max Inhibition” value is “B (75% > B ≥ 50%)”.

As to `C=CC(=O)N1CC[C@](F)(C#Cc2ccc(C(F)(F)F)cc2)C1` (single isomer, unassigned) [Example 62, (S*)-1-(3-fluoro-3-((4-(trifluoromethyl)phenyl)ethynyl)pyrrolidin-1-yl)prop-2-en-1-one], the IC50 fell in the range of 10 to 100 nM and the “TEAD1-Luc MCF7: Max Inhibition” value is given as “B (75% > B ≥ 50%)”.

As to `C=CC(=O)N1CC[C@@](F)(C#Cc2ccc(C(F)(F)F)cc2)C1` (single isomer, unassigned) [Example 63, (R*)-1-(3-fluoro-3-((4-(trifluoromethyl)phenyl)ethynyl)pyrrolidin-1-yl)prop-2-en-1-one], the IC50 lay within 10 to 100 nM and the “TEAD1-Luc MCF7: Max Inhibition” value was “A (A ≥ 75%)”.

With `C=CC(=O)N1CC[C@](O)(C#Cc2ccc(C(F)(F)F)cc2)C1` (single isomer, unassigned) [Example 64, (S*)-1-(3-hydroxy-3-((4-(trifluoromethyl)phenyl)ethynyl)pyrrolidin-1-yl)prop-2-en-1-one], the IC50 lay within 10 to 100 nM and the “TEAD1-Luc MCF7: Max Inhibition” value is reported as “A (A ≥ 75%)”.

For `C=CC(=O)N1CC[C@@](O)(C#Cc2ccc(C(F)(F)F)cc2)C1` (single isomer, unassigned) [Example 65, (R*)-1-(3-hydroxy-3-((4-(trifluoromethyl)phenyl)ethynyl)pyrrolidin-1-yl)prop-2-en-1-one], the IC50 was 100 to 500 nM and the “TEAD1-Luc MCF7: Max Inhibition” value was “A (A ≥ 75%)”.

Regarding `C=CC(=O)N1CC[C@H](C#Cc2ccc(C(F)(F)F)cc2)C1` (single isomer, unassigned) [Example 66, (R*)-1-(3-((4-(trifluoromethyl)phenyl)ethynyl)pyrrolidin-1-yl)prop-2-en-1-one], the IC50 was in the range of 10 to 100 nM and the “TEAD1-Luc MCF7: Max Inhibition” value is recorded as “A (A ≥ 75%)”.

As to `C=C(F)C(=O)N1CC[C@@H](/C=C/c2ccc(C(F)(F)F)cc2)C1` (single isomer, unassigned) [Example 68], the IC50 fell in the range of 100 to 500 nM and the “TEAD1-Luc MCF7: Max Inhibition” value is “B (75% > B ≥ 50%)”.

Take `C=C(F)C(=O)N1CC[C@H](/C=C/c2ccc(C(F)(F)F)cc2)C1` (single isomer, unassigned) [Example 69]: the IC50 fell in the range of 100 to 500 nM and the “TEAD1-Luc MCF7: Max Inhibition” value is “B (75% > B ≥ 50%)”.

On to `C=CC(=O)N1C[C@H](Nc2ncccn2)[C@@H](/C=C/c2ccc(C(F)(F)F)cc2)C1` (single isomer, unassigned) [Example 84], for which the IC50 fell in the range of 10 to 100 nM and the “TEAD1-Luc MCF7: Max Inhibition” value is listed as “A (A ≥ 75%)”.

For `C=CC(=O)N1CCC(/C=C/Cc2ccc(C(F)(F)F)cc2)C1` (single isomer, unassigned) [Example 88, (E)-1-(3-(3-(4-(trifluoromethyl)phenyl)prop-1-en-1-yl)pyrrolidin-1-yl)prop-2-en-1-one], the 50% inhibitory concentration (IC50) is at most 10 nM and the “TEAD1-Luc MCF7: Max Inhibition” value is listed as “B (75% > B ≥ 50%)”.

In the case of `C=CC(=O)N1CCC(/C=C\Cc2ccc(C(F)(F)F)cc2)C1` (single isomer, unassigned) [Example 89, (Z)-1-(3-(3-(4-(trifluoromethyl)phenyl)prop-1-en-1-yl)pyrrolidin-1-yl)prop-2-en-1-one], the half-maximal inhibitory concentration (IC50) was 10 to 100 nM and the “TEAD1-Luc MCF7: Max Inhibition” value is on record as “A (A ≥ 75%)”.

For orientation: IC50 means the point on the concentration scale where inhibition reaches its midpoint. A lower IC50 goes with greater potency.
